This note sets out measurements from ChEMBL document CHEMBL1201862, “PubChem BioAssay data set” (2004).

Each structure is given as a SMILES string. The source made the active and inactive calls.

One assay addresses Caspase-7 (Homo sapiens, UniProt P55210). Description: caspase-7 enzyme inhibition, selectivity check – biochemical, DEVD-R110 fluorescence, cherry-pick, selectivity assay for caspase-6 inhibitor project, dose response (AID 743295). It counts as functional.
Assay [1] addresses Mitochondrial peptide methionine sulfoxide reductase (Bos taurus, UniProt P54149). Description: Absorbance-based biochemical high throughput dose response assay for activators of Methionine sulfoxide reductase A (MsrA). It counts as functional.
Assay [2] concerns the target Tyrosyl-DNA phosphodiesterase 2 (Homo sapiens, UniProt O95551). Description: potency against TDP2 phosphodiesterase activity – biochemical, epi absorbance, IC50, dose response (AID 743297).
The target in assay [3] is T1, Sentrin-specific protease 7 (Homo sapiens, UniProt Q9BQF6).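 Note: Luminescence-based dose-response confirmation of ultra-high-throughput screening hits, measuring inhibition of SENP7.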
T1 sequence (Q9BQF6 whole entry): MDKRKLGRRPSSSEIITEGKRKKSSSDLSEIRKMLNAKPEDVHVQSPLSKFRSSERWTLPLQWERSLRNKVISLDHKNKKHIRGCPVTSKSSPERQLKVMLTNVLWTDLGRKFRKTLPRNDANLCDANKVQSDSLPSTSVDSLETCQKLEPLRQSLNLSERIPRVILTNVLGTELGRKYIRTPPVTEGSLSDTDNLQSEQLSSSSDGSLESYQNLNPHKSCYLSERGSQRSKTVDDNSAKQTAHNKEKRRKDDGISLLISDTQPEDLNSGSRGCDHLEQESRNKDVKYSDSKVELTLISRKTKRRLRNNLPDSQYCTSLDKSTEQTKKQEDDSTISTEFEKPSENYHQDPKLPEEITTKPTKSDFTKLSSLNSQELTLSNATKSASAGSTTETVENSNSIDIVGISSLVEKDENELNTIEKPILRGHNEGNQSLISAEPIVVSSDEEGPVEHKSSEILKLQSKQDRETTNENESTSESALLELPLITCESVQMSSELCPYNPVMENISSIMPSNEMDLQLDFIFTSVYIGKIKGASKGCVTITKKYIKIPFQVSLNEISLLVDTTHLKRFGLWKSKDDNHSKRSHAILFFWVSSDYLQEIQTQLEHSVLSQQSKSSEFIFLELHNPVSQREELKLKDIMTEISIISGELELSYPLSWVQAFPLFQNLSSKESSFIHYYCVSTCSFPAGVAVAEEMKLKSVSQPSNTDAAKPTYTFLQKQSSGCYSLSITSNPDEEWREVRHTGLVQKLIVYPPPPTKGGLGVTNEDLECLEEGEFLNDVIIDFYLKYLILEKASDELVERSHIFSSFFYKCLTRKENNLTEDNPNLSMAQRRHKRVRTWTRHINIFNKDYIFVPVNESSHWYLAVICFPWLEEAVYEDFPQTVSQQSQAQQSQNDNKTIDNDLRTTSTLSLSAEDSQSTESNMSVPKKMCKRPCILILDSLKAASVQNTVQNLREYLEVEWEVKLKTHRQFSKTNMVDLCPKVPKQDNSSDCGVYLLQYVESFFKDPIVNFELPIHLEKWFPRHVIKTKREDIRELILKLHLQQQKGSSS
It counts as functional.

The next assay deals with Caspase-8 (Homo sapiens, UniProt Q14790). Description: inhibitors of purified CASP8 protease – biochemical, Z-IETD-R110 fluorescence, cherry-picked samples, selectivity assay for caspase-6 inhibitor project, dose response (AID 743294).
Another assay concerns the target T2, Caspase-6 (Homo sapiens, UniProt P55212).
T2 sequence (P55212 whole entry): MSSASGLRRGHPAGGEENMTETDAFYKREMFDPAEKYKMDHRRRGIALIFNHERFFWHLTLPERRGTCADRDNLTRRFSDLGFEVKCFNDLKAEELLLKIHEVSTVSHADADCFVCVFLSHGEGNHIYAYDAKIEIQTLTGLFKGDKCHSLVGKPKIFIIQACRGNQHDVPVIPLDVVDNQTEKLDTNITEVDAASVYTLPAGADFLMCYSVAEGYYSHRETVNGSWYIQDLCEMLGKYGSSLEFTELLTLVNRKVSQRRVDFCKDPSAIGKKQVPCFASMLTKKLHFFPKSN
Description: inhibition of CASP6 peptide cleavage – biochemical, VEID-R110 fluorescence, cherry-pick, dose response (AID 720632).

The next assay has as its target Caspase-9 (Homo sapiens, UniProt P55211). Description: inhibitors of purified CASP9 protease – biochemical, fluorescence, plate reader, cherry-picked samples, selectivity assay for caspase-6 inhibitor project, dose response (AID 743293).
Assay [4] addresses T3, Sentrin-specific protease 6 (Homo sapiens, UniProt Q9GZR1).
T3 sequence (Q9GZR1 whole entry): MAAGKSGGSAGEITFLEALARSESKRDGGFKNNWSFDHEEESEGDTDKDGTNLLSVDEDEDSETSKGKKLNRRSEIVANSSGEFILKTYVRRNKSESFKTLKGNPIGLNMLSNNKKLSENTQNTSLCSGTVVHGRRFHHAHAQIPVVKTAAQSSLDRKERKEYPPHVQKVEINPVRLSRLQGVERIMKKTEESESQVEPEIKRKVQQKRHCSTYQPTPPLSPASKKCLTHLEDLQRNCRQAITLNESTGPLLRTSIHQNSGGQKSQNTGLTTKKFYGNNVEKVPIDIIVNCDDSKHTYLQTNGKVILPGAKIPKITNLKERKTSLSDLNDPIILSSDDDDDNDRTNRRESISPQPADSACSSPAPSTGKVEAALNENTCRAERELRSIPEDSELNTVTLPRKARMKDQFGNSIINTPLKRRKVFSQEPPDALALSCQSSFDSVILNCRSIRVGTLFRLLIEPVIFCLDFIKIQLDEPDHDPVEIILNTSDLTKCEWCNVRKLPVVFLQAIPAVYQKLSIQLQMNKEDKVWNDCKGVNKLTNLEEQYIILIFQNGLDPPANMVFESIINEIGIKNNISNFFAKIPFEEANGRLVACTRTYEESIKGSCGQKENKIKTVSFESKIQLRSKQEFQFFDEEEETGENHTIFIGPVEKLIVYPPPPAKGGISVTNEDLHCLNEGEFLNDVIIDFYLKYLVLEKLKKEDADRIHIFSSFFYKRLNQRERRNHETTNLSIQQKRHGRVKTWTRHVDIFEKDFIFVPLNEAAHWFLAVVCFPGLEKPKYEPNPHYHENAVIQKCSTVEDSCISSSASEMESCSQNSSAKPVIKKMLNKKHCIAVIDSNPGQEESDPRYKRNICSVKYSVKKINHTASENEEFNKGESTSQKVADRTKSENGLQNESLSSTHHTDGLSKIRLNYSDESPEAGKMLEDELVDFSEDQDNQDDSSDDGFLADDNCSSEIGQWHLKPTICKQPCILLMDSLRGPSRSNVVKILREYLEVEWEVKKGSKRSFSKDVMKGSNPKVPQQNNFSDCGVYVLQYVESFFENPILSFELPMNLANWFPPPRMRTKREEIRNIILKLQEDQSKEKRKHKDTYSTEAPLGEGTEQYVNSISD
Type of assay: functional.

The target of assay [5] is T4, Caspase-3 (Homo sapiens, UniProt P42574).
T4 sequence (P42574 whole entry): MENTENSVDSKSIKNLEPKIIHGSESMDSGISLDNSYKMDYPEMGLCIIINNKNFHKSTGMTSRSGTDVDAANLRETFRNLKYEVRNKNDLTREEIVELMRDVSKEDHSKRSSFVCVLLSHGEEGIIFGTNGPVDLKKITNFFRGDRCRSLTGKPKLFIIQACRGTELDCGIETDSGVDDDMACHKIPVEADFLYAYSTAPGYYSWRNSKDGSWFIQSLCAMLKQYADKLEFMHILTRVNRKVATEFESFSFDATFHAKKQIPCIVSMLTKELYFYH
It counts as functional.

The target in assay [6] is T5, Sentrin-specific protease 8 (Homo sapiens, UniProt Q96LD8).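 Note: luminescence read-out of SENP8 inhibition, dose-response confirmation following an ultra-high-throughput screen.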
T5 sequence (Q96LD8 whole entry): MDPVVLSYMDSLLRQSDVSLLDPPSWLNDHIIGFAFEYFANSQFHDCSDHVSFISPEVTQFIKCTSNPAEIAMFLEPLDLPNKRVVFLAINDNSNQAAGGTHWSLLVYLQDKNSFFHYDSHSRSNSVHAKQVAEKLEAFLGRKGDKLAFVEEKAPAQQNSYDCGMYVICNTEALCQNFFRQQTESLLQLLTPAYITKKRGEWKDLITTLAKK
It counts as functional.

The target of assay [7] is T4, Caspase-3. Description: human caspase-3 protease activity blockade – biochemical, fluorescence, cherry-picked samples, selectivity assay for caspase-6 allosteric inhibitor project, dose response (AID 743291).
For a further assay, the system named is H9c2. Description: cells. Particulars: Rattus norvegicus, H9c2, Myocardium. Type of assay: functional, cell-based.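 Note: confirmatory concentration-response retest of ultra-high-throughput screening hits for modulation of myocardial damage; cell death induced by hydrogen peroxide oxidative stress; compound pretreatment for 60 min then peroxide exposure for 2 h; potency is for protecting the cells against peroxide damage rather than for killing them.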
A short description of assay [8]: PAX8-dependent cell viability loss – plate reader, dry powder, dose response (AID 743049). Type of assay: functional, cell-based.
Assay [9] is described as follows: inhibitors acting on PAX2 in cells – cell-based, plate reader, dry powder samples, selectivity assay for PAX8 inhibitor project, dose response (AID 743048).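 Note: HEK293 cells carrying a WT1 promoter luciferase reporter driven by expressed Pax2; potency is for inhibition of Pax2 driven reporter signal.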 Type of assay: functional.
A short description of assay [10]: COV434 cell viability loss – plate reader, dry powder, SA7, cytotoxicity control for PAX8 inhibitor project, dose response (AID 743145). Type of assay: functional, cell-based.
A short description of assay [11]: OV-90 cell viability loss – plate reader, dry powder, SA8, PAX8 inhibitor project, dose response (AID 743149). Type of assay: functional, cell-based.
Assay [12] in a line: PAX5 cellular inhibition readout – cell-based, plate reader, dry powder samples, selectivity assay for PAX8 inhibitor project, dose response (AID 743047).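 Note: HEK293 cells carrying a Pax5 driven CD19 promoter luciferase reporter; potency of inhibitors that lower reporter luminescence.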 Type of assay: functional.
Assay [13] is described as follows: inhibitors of TRPM1-promoter reporter in SK-MEL-5 – cell-based, luciferase, dry powder, set 9, MITF inhibitor project, dose response (AID 651588). Type of assay: functional.
A short description of assay [14]: MITF Orthogonal Assay: MALME3 CTG Assay Measured in Cell-Based System Using Plate Reader - 2084-04_Inhibitor_Dose_DryPowder_Activity_Set6. To be noted: MALME-3. It counts as functional.
A short description of assay [15]: MITF Orthogonal Assay: SK-MEL-5 CTG Assay Measured in Cell-Based System Using Plate Reader - 2084-02_Inhibitor_Dose_DryPowder_Activity_Set7. It counts as functional.
A short description of assay [16]: growth inhibition of SK-MEL-5 melanoma cells – cell-based, CellTiter-Glo luminescence, dry powder, set 8, orthogonal assay for MITF inhibitor project, dose response (AID 651586). Type of assay: functional.
Assay [17] in a line: cytotoxicity in MITF-independent A375 cells – cell-based, CellTiter-Glo luminescence, dry powder, set 9, counter-screen for MITF modulator project, dose response (AID 651591). It counts as functional. To be noted: A-375. Background: In ATP-based viability assays light output follows the ATP content of the culture.
A short description of assay [18]: MITF: Counter assay: A375 proliferation Measured in Cell-Based System Using Plate Reader - 2084-03_Inhibitor_Dose_DryPowder_Activity_Set8. It counts as functional. To be noted: A-375.
A short description of assay [19]: growth inhibition of MALME3 cells – cell-based, CellTiter-Glo luminescence, dry powder, set 5, orthogonal assay for MITF inhibitor project, dose response (AID 651584). It counts as functional. To be noted: MALME-3.
The nature of assay [20]: inhibitors of TRPM1-promoter reporter in SK-MEL-5 – cell-based, luciferase, dry powder, set 8, MITF inhibitor project, dose response (AID 624430). It counts as functional.

The term AC50 denotes the concentration giving half of the maximal activity seen. As usually defined, the EC50 is the concentration at which the effect is half-maximal. A word on the IC50: it is the point on the concentration scale where inhibition reaches its midpoint.

Chain of Caspase-7 (P55210 24-198 limits assumed): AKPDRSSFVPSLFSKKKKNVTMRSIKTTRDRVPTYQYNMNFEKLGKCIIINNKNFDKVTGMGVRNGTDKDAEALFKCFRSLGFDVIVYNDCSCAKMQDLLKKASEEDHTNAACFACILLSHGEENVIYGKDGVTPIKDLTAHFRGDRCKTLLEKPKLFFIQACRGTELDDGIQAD
Chain of Caspase-7 (P55210 207-303 limits assumed): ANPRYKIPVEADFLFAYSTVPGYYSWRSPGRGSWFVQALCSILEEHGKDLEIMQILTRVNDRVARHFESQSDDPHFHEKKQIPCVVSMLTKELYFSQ
Chain of Caspase-9 (P55211 1-315 limits assumed): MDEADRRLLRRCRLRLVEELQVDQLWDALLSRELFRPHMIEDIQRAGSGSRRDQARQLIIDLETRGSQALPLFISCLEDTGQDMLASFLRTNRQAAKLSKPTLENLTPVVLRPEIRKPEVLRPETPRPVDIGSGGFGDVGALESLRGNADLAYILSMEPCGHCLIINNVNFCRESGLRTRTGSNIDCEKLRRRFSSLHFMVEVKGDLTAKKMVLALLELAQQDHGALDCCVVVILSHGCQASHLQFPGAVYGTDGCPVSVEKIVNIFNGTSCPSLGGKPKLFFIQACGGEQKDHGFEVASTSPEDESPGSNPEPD
Chain of Caspase-9 (P55211 331-416 limits assumed): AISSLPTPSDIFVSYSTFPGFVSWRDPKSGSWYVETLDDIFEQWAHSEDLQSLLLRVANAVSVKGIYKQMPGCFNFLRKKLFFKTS
Chain of Caspase-8 (Q14790 217-374 limits assumed): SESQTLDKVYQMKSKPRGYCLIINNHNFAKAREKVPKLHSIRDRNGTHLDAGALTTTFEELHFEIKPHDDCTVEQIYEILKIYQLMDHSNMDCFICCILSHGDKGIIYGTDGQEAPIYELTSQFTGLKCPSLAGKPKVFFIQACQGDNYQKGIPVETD
Chain of Caspase-8 (Q14790 385-479 limits assumed): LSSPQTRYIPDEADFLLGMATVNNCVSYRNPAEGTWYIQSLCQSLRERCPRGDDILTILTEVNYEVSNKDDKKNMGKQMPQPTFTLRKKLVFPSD
Chain of Tyrosyl-DNA phosphodiesterase 2 (O95551 whole entry): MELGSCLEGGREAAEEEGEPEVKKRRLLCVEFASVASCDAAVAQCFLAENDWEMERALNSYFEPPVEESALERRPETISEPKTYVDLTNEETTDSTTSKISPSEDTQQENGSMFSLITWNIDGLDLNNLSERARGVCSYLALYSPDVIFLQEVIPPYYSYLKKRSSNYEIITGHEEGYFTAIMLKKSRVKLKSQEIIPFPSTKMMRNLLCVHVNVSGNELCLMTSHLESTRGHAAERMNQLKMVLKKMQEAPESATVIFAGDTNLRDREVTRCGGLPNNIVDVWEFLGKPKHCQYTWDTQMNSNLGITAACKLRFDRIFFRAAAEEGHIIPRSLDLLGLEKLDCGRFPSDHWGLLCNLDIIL
Chain of Mitochondrial peptide methionine sulfoxide reductase (P54149 whole entry): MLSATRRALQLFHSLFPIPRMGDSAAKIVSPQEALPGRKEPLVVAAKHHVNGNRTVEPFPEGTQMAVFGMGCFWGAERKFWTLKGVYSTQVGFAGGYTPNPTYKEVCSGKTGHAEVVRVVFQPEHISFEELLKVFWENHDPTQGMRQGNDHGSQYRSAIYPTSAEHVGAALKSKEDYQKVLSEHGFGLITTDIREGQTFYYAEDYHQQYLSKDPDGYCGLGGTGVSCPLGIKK

In the case of `O=C(OCc1nnc(-c2ccccc2)o1)c1ccc([N+](=O)[O-])s1`, the AC50 is 14.6 µM (active) on Caspase-7; 23.3 µM (active) at Caspase-8; 3.66 µM (active) on Caspase-6; 18.4 µM (active) on Caspase-9; 6.9 µM (active) on Caspase-3 [7]. In addition, the EC50 in assay [1] was 33.1 µM (inactive). For the same compound, the IC50 in [2] was 24.2 µM (inactive); in assay [3] it was 10.1 µM (active); in assay [4] it was 6.79 µM (active); on Caspase-3 [5], 14.3 µM (active); in [6], 5.56 µM (active); in the assay with H9c2, > 79 µM (inactive).
On to `COc1cccc(C#Cc2ccc([C@@H]3[C@@H](C#N)N(C(=O)C4CCCCC4)[C@@H]3CO)cc2)c1`, for which the AC50 in assay [8] is 25.8 µM (active); in [9] it was 19.9 µM (active); in assay [10], 69.6 µM (active); in [11] it was 57.3 µM (active); in assay [12], 30.5 µM (active).
As to `CN1CCN(C2=C(Nc3ccc(F)cc3F)C(=O)c3ccccc3C2=O)CC1`, the AC50 in assay [13] was 17.5 µM (active); in [14] it was 25.4 µM (active); in assay [15] it was 9.87 µM (active); in [16], > 70 µM (inactive); in assay [17], > 70 µM (inactive); in [18] it was > 70 µM (inactive). Further, the values for the AC50 in assay [19] and in assay [20] were 25.4 µM (active) and 5.36 µM (active), respectively.
